Data taken from patent US11389537B2, “Drug delivery system for sustained delivery of bioactive agents” (UPM-Kymmene Corporation, priority 2011, dated 2022).
Values after ≈ are worked out from the molar mass of the structure shown. Counter-ions that a name gives are not always drawn. Like-named read-outs stand apart in the source and are kept apart here.

Tests used:
[1] = Solubility in water of tested drugs; assay type: physicochemical; settings: value obtained from testing
Source text: (§1) NFC has strong affinity to water, which makes drying it difficult. The residence time in the spray-drying chamber is short and therefore high temperature needs to be used in drying. If lower temperature and/or higher feeding rates were to be used, the wet material would adhere to the chamber. The application of high temperature when spray drying the aqueous suspension of NFC containing an API, increases the risk of degradation of the API during the drying process. High temperature is also a limitation for the choice of the API if its melting point is low (Table 11, showing the values of melting point (Tm), water solubility and stability in water solution of tested drugs). Generally, particles reach a maximum temperature during spraying, which is 15-20° C. below the outlet temperature of a co-current dryer. During the particle production outlet temperatures were in the range of 120-127° C., which was sufficient for successful drying.

[2] = Stability in water solution of tested drugs; assay type: physicochemical
Source text: as §1, with “dryer.” for “dryer. During the particle production outlet temperatures were in the range of 120-127° C., which was sufficient for successful drying.”

[3] = cited from earlier work
[4] = Contact angle between matrix surface and water drop; settings: water drop on matrix surface or pure drug

CC(C)(C)NCC(O)COc1cccc2c1CC(O)C(O)C2 (stereo not shown) [Nadolol, nadolol]
solubility [1]: 6770 µg/mL (≈ 21.9 mM) | Stability in water solution (21° C.) ([2]; obtained from testing): *up to 30 days

COCCc1ccc(OCC(O)CNC(C)C)cc1 (stereo not shown) [Metoprolol tartrate, metoprolol tartrate]
Stability in water solution (21° C.) ([2]; obtained from testing): *up to 60 days | Solubility in water (words) [3]: freely

COc1ccc2c(c1)c(CC(=O)O)c(C)n2C(=O)c1ccc(Cl)cc1 [Indomethacin, indomethacin]
Stability in water solution (21° C.) ([2]; pH 7.4, obtained from testing): *pH 7.4 up to 4 days | Solubility in water [3]: <1 µg/mL | Solubility in water (words) [3]: ↑ with ↑ pH | Solubility in water ([3]; line below '↑ with ↑ pH'): <1000 µg/mL | Contact angle [4]: 76.7

CC(C)Cc1ccc(C(C)C(=O)O)cc1 (stereo not shown) [Ibuprofen, ibuprofen]
Solubility (50 mM NH4OH) ([3]; 50 mM NH4OH): 6000 µg/mL (≈ 29.1 mM)
